Results reported in US20090215882A1, “LYOPHILIZED SOLID TAXANE COMPOSITION, A PROCESS FOR PREPARING SAID SOLID COMPOSITION, A PHARMACEUTICAL FORMULATION AND A KIT FOR SAID FORMULATION” (ERIOCHEM, S.A., priority 2006, published 2009).

Columns and labels:
[1] = Solubility / dissolution in aqueous solutions without organic solvent; type: physicochemical; details: for dissolution of the intermediate lyophilized taxane in aqueous Solutol HS15 solution: aqueous Solutol HS15 mixture with excipient (mannitol/citric acid or povidone), no organic solvent
Description: The intermediate lyophilized taxane is dissolved in aqueous solutions of polymers or a mixture of said polymers, namely Lutrol™ F68, Solutol™ HS15, povidone K12 PF or K17 PF.

[2] = Apparent density of the lyophilizate; type: physicochemical; details: intermediate lyophilized taxane (first lyophilization from organic solvent)
From the text: The apparent density of the lyophilizate is defined as the quotient between the mass of the lyophilization cake in grams and its volume in milliliters.
The apparent density of the lyophilizates has been carefully assessed, and after a great number of experiments the apparent density values in which the technical effects of the invention are possible such as easy reconstitution of said solid composition of lyophilized taxane in an aqueous solution free from organic solvent were obtained. […] In other words, the lower the apparent density of the lyophilization cake, the fastest its dissolution. Also, if the apparent density of the solid composition of lyophilized taxane of the present invention is very low, the concentration of the tensoactive is not enough to maintain said taxane in solution, and said taxane precipitates rapidly.

[3] = Chemical degradation of docetaxel in aqueous tensoactive solution; type: physicochemical; details: pH maintained at values higher than 6
[4] = after administration to mammals, compared to polysorbates; cited from earlier work
[5] = estimated by the World Health Organization; cited from earlier work

Row | dissolution of the intermediate lyophilized taxane in aqueous Solutol HS15 solution [1] | apparent density [2] | Compound | other results
1 | readily dissolved | 0.025 g/mL | CC(=O)O[C@@]12CO[C@@H]1C[C@H](O)[C@@]1(C)C(=O)[C@H](O)C3=C(C)[C@@H](OC(=O)[C@H](O)[C@@H](NC(=O)OC(C)(C)C)c4ccccc4)C[C@@](O)([C@@H](OC(=O)c4ccccc4)[C@H]21)C3(C)C [Example 1, docetaxel] | 
2 | readily dissolved | 0.014 g/mL | CC(=O)O[C@@]12CO[C@@H]1C[C@H](O)[C@@]1(C)C(=O)[C@H](O)C3=C(C)[C@@H](OC(=O)[C@H](O)[C@@H](NC(=O)OC(C)(C)C)c4ccccc4)C[C@@](O)([C@@H](OC(=O)c4ccccc4)[C@H]21)C3(C)C [Example 2, docetaxel] | 
3 |  |  | CC(=O)O[C@@]12CO[C@@H]1C[C@H](O)[C@@]1(C)C(=O)[C@H](O)C3=C(C)[C@@H](OC(=O)[C@H](O)[C@@H](NC(=O)OC(C)(C)C)c4ccccc4)C[C@@](O)([C@@H](OC(=O)c4ccccc4)[C@H]21)C3(C)C [docetaxel] | solubility in aqueous solutions ([1]; commercially available API, absence of added organic solvents): not soluble; degradation to 7-epidocetaxel [3]: ≤ 60%
4 |  |  | Polyethylene glycol-15-hydroxystearate [Solutol HS15] | histaminic release [4]: very low histaminic release
5 |  |  | polysorbate 80 | maximum daily dose [5]: 25 mg/kg of body weight
